# Experimental data as given in patent US20250115628A1, “FLUORINATED FLUOROPHORES” (HOWARD HUGHES MEDICAL INSTITUTE, priority 2023, published 2025).
# What was measured:
# [1] = system: U2OS cells stably expressing HaloTag®-histone H2B fusion protein; test: Loading experiments using ligands 65HTL and 91HTL (JF552-HaloTag® ligand chase); type: cell-based; settings: 200 nM, 0-4 h
# Procedure: U2OS cells (ATCC) and U2OS cells stably expressing an integrated HaloTag®-histone H2B fusion protein (U2OS·H2B·HaloTag®) were cultured in Dulbecco's modified Eagle medium (DMEM, phenol red-free; Life Technologies) supplemented with 10% (v/v) fetal bovine serum (FBS, Life Technologies), 1 mM GlutaMAX (Life Technologies) and maintained at 37° C. in a humidified 5% (v/v) CO2 environment. These cell lines undergo regular mycoplasma testing by the Janelia Cell Culture Facility. For mitochondrial imaging using the HaloTag® system, U2OS cells were transiently transfected using nucleofection (Lonza) with a plasmid constitutively expressing a HaloTag®-TOMM20 fusion protein, which is located on the outer mitochondrial membrane. […]
# For loading curve experiments, U2OS·H2B·HaloTag® stable cells were incubated with 200 nM 65HTL and 91HTL for 0-4 h at 37° C., washed 3× with dye-free media then chased with 200 nM JF552-HaloTag® ligand 15 for 30 min at 37° C., washed 3× with dye-free media and fixed with 4% paraformaldehyde in 0.1 M phosphate buffer, pH 7.4 for 15 min at 37° C. […] Fluorescence was quantified as the integrated density of nuclear signals from confocal image stack projections analyzed in FIJI;^82 n=100 nuclear signals per compound.
# [2] = system: ScAMPI (SNAP-tag®-Epac1-HaloTag®) expressed in U2OS cells; test: cAMP FLIM-FRET sensor ScAMPI (fluorescence lifetime imaging); type: cell-based
# Excerpt: The Epac-based cAMP sensor “Epac-S^H189”, was obtained from Addgene (Plasmid #170348). This sensor consists of a mTurquoise fluorescent protein and a tdDark Venus protein linked via the Epac1 protein.
# To construct the SNAP-tag®-Epac1-HaloTag® sensor, the sequence encoding the tdDark Venus domain in Epac-S^H189 was first replaced with the HaloTag® sequence using Nhe1 and Asc1 fragment ligation (NEB), creating a construct with mTurquoise and HaloTag® flanking the Epac1 domain (i.e, mTurquoise-Epac1-HaloTag®). […]
# To evaluate this semisynthetic system in cells, U2OS cells (ATCC) were maintained in DMEM (Corning) containing 10% v/v FBS (ATCC), 1% v/v L-glutamine (Gibco) and 1% v/v Pen/Strep (Gibco). […] Fluorescence lifetime imaging was performed with a Leica SP8 Falcon using LASX software for image acquisition and analysis. […] Fluorescence emission was collected by the HyD detector. […] Mean amplitude weighted lifetime image (τmean) was calculated by fixing the two lifetimes and performing an image fit for their respective amplitudes (a1 and a2). FRET efficiency was calculated using the mean lifetime obtained in absence (τmean,-forskolin) and (τmean,+forskolin) presence of forskolin as 1^−(τmean,-forskolin/τmean,+forskolin).
# HaloTag® protein = biological target: T1, HaloTag® protein (Rhodococcus rhodochrous, UniProt P0A3G2, A155T/A167V/A172T/A224E/C128F/C176G/D78G/E160K/E257K/H272N/K175M/K195N/L47V/L88M/N227D/P291S/S2A/S58T/T264A/Y273L/Y87F); test: Absorption increase of ligands on binding HaloTag® protein; type: biochemical
# T1 construct: 6xHis; made in house; host or cells: bacterial expression (pRSET-A vector, Invitrogen)
# Procedure: The bacterial expression vector pRSET-A (Invitrogen) was used to recombinantly express HaloTag® (HT7; Promega).^7 The soluble 6×His-Tagged HaloTag® protein was affinity purified by immobilized metal affinity chromatography (IMAC) on a 5^−mL Fast Flow HiTrap Sepharose 6 column (Cytiva) with a 0-200 mM imidazole elution gradient using an ÄKTA Avant Protein Purification System (Cytiva).
# HaloTag® protein was used as a […] solution in 1× TBS. Absorption measurements were performed in 1.4^−mL semi-micro quartz cuvettes. A […] solution of HaloTag® ligand 65HTL or 91HTL was prepared in 10 mM HEPES, pH 7.3 containing 0.1 mg mL-1 CHAPS. An aliquot of HaloTag® protein (2 equiv, […] [HaloTag®]) was added. To examine chromogenicty (FIG. 5B, left panel), the resulting mixture was incubated until a consistent absorption signal/spectrum was observed (<60 min for 65HTL); an equivalent volume of 1× TBS blank was added to separate “−HT” samples in place of enzyme to record the ligand-only absorption. Spectra are averages (n=2). To compare rates of HaloTag® labeling (FIG. 5B, right panel) absorption at λabs (645 nm for 65HTL, 621 nm for 91HTL) was recorded at regular intervals (0.1 min, 0-5 min; 1 min, 5-120 min; 5 min, 2-24 h) immediately following addition of HaloTag® protein.
# T1 sequence (P0A3G2 other isoform, or with tags, fused parts or gaps with the stated changes): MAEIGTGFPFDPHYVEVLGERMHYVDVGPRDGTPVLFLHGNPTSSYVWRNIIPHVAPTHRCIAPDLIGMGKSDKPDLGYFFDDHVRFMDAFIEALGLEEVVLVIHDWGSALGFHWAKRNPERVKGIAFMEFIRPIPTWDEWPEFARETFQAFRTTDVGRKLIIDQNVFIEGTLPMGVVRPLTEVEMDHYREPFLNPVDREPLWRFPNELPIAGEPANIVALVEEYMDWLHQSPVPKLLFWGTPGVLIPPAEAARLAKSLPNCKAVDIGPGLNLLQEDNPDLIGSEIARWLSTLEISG
smiles,measurement,setting,value
"C=C/C=C(C=C)/[N+](C)=C1\C=CC2=C(c3c(F)c(C(=O)NCCOCCOCCCCCCCl)c(F)c(F)c3C(=O)[O-])c3ccc(N(C)c4ccccc4)cc3C(C)(C)C2=C1 [65HTL, JQ645-HaloTag® ligand]",HaloTag® labeling in cells compared with 91HTL,[1],substantially faster
same,FRET quenching of the JFX612 donor,[2],effective FRET quencher
same,HaloTag® labeling in vitro compared with 91HTL,HaloTag® protein; absorbance vs. time upon addition to HaloTag® protein,substantially faster
same,ε of HaloTag® conjugate,HaloTag® protein; after incubation with HaloTag® protein,"110,000 M^−1 cm^−1"
same,λabs used for HaloTag® labeling read-out,"HaloTag® protein; ligand in 10 mM HEPES, pH 7.3 with CHAPS, HaloTag® protein added",645 nm
same,increase in absorptivity on incubation with HaloTag® protein,"HaloTag® protein; ligand with 2 equiv HaloTag® protein, 10 mM HEPES, pH 7.3",47 fold
